Measured values published in PMC8879959, “In Vivo Antistress Effects of Synthetic Flavonoids in Mice: Behavioral and Biochemical Approach” (Molecules, 2022).
Converted amounts (≈) assume the structure as drawn. Read-outs that look alike come from different tables or passages of the source.

Experiments:
mice [1] = assay: Swimming endurance test; assay type: in vivo, Balb/C mice; conditions: flavonoids 10 mg/kg, standard diazepam 2 mg/kg IP, 15 days; recorded for 30 min; mean ± SEM, n = 8
Procedure: Animals were divided at random into two groups of 8. Tween 80 (2%) was given to the control group, while animals in each group were treated with 10 mg/kg of each flavonoid. […] All the doses were given constantly for 15 days. On 15th day, one hour after the dose administration, all the animals were allowed to swim in isolation in a glass tank. The time of immobility for each animal was recorded for a period of 30 min [26, 27].

mice [2] = assay: Biochemical parameters in blood after restraint stress; assay type: in vivo, Balb/C mice; conditions: flavonoids 10 mg/kg, standard diazepam 2 mg/kg, 15 days, mean ± SEM
Text: (§1) The adhesive tape was removed, and blood samples were collected. After blood collection, the animals were sacrificed, and the brain and vital organs were isolated and weighed.
After restrain test, blood samples were collected for the assessment of blood glucose, triglycerides and total cholesterol levels, using available commercial kits. […]

mice [3] = assay: Restraint stress, organ weights; assay type: in vivo, Balb/C mice; conditions: restraint stress 2 h; flavonoids 10 mg/kg p.o., standard diazepam 2 mg/kg IP, 15 days; mean ± SEM
Text: as §1

[4] = test system: acetic acid-induced stress mice; assay: Chemical induced stress (acetic acid model, writhes); assay type: in vivo, Balb/C mice
Text: The anti-stress effect of synthesized flavonoids was screened for chemical-induced stress using the acetic acid model. Animals were randomly assigned into two groups of 8. The control group received Tween 80 (2%). […] The treatments in all groups were given persistently for a period of 15 days.

mice [5] = assay: Biochemical parameters in brain after restraint stress; assay type: in vivo, Balb/C mice; conditions: flavonoids 10 mg/kg, standard diazepam 2 mg/kg, 15 days, mean ± SEM
[6] = DPPH free radical scavenging assay; assay type: biochemical; conditions: concentration range 6.25–50 μg/mL, absorbance 517 nm
Procedure: Scavenging activities for DPPH and ABTS were calculated and the IC50 was determined.

[7] = Mus musculus, ip, 360 h; read-out: Antistress Response (%)
[8] = flavonoids 10 mg/kg, standard diazepam 2 mg/kg IP, 15 days; acetic acid i.p. 0.1 mL (6% v/v), writhes within 20 min; mean ± SEM, n = 8
[9] = Mus musculus, ip, 360 h, read-out: Antistress Response (%)

Compound | Immobility Time (mice [1]) [min] | Glucose (blood) (mice [2]) | TGs (blood triglycerides) (mice [2]) | Total Ch (blood total cholesterol) (mice [2]) | Weight of Adrenal Gland (mice [3]) | Weight of Brain (mice [3]) [mg] | Weight of Spleen (mice [3]) [mg] | inhibition in vivo at 10 mg/kg [4, 7] [%] | Catalase (brain) (mice [5]) [IU/dL] | SOD (brain) (mice [5]) [IU/dL] | TBARS (brain lipid peroxidation) (mice [5]) [nmol/g] | Immobility Time (Min) (mice [1]) | Number of Writhes [4, 8] | inhibition in vivo at 10 mg/kg [4, 9] [%] | IC50, scavenging against DPPH [6] [µg/mL]
COc1ccc(-c2cc(=O)c3ccccc3o2)cc1 [F3] | 2.88 ± 0.26 | 98.45 ± 1.51 | 44.69 ± 0.37 | 78.43 ± 0.93 | 7.22 ± 1.51 mg | 411.3 ± 2.93 | 181.7 ± 2.06 | 74.4 | 18.92 ± 0.51 | 9.42 ± 0.87 | 18.44 ± 0.63 |  |  |  | 
Cc1ccc(-c2oc3ccccc3c(=O)c2O)cc1 [OF2] | 2.95 ± 0.37 | 97.56 ± 1.61 | 42.88 ± 0.41 | 76.82 ± 0.86 | 7.21 ± 1.87 mg | 414.2 ± 2.51 | 190.5 ± 2.76 | 74.3 | 18.74 ± 0.67 | 9.02 ± 0.54 | 17.74 ± 0.56 |  |  |  | 
CN1C(=O)CN=C(c2ccccc2)c2cc(Cl)ccc21 [Standard, Diazepam, reference compound] |  | 108.2 ± 1.06 mg/dL | 38.52 ± 0.57 | 75.62 ± 0.65 | 10.58 ± 5.77 ^ns mg |  | 158.3 ± 2.89 |  |  |  |  | reduced the immobility time to a significant level |  |  | 
CN(C)c1ccc(-c2oc3ccccc3c(=O)c2O)cc1 [OF5] | 3.25 ± 0.29 | 101.09 ± 1.14 | 46.24 ± 0.39 | 77.91 ± 0.97 | 8.04 ± 1.18 mg | 400.5 ± 2.21 | 186.3 ± 2.74 | 63.3 | 17.06 ± 0.61 | 8.11 ± 0.51 | 18.56 ± 0.51 |  | 16.44 ± 3.04 |  | 
O=c1c(O)c(-c2ccccc2)oc2ccccc12 [OF1] | 4.32 ± 0.31 | 105 ± 1.77 mg/dL | 51.22 ± 0.66 | 80.81 ± 0.72 | 8.09 ± 1.34 mg | 397.4 ± 3.76 | 188.4 ± 2.24 | 63.4 | 17.02 ± 0.71 | 8.46 ± 0.76 | 19.25 ± 0.51 |  | 17.32 ± 2.33 |  | 
CN(C)c1ccc(-c2cc(=O)c3ccccc3o2)cc1 [F5] | 3.64 ± 0.21 | 101.33 ± 1.72 | 46.72 ± 0.51 | 81.82 ± 0.85 | 8.12 ± 1.81 mg | 412.7 ± 2.81 | 170.3 ± 2.61 | 64.6 | 17.11 ± 0.51 | 8.04 ± 0.57 | 19.02 ± 0.71 |  | 16.31 ± 2.58 |  | 
O=c1cc(-c2ccc(Cl)cc2)oc2ccccc12 [F4] | 3.21 ± 0.19 | 100.92 ± 1.91 | 47.51 ± 0.38 | 80.76 ± 0.91 | 8.03 ± 1.98 mg | 402.4 ± 3.19 | 173.1 ± 2.66 |  | 17.88 ± 0.59 | 9.31 ± 0.78 | 19.09 ± 0.49 |  | 16.21 ± 2.09 | 65.8 | 
O=c1c(O)c(-c2ccc(Cl)cc2)oc2ccccc12 [OF4] | 3.44 ± 0.25 | 101.15 ± 1.66 | 46.92 ± 0.44 | 78.33 ± 0.76 | 7.91 ± 1.91 mg | 401.8 ± 2.34 | 183.9 ± 2.56 |  | 17.45 ± 0.66 | 8.35 ± 0.64 | 18.67 ± 0.76 |  | 14.18 ± 2.17 | 67.1 | 
COc1ccc(-c2oc3ccccc3c(=O)c2O)cc1 [OF3] | 2.33 ± 0.28 | 97.06 ± 1.71 | 43.11 ± 0.36 | 76.09 ± 0.64 | 6.79 ± 1.10 mg | 413.6 ± 2.66 | 194.8 ± 2.11 | 80.9 | 19.02 ± 0.77 | 9.58 ± 0.66 | 17.49 ± 0.61 |  |  |  | 25.54 ± 1.21 (≈ 95.2 µM)
O=c1cc(-c2ccc(C(F)(F)F)cc2)oc2ccccc12 [F6] | 3.41 ± 0.23 | 102.09 ± 1.62 | 47.26 ± 0.44 | 82.01 ± 0.79 | 8.09 ± 1.77 mg | 408.3 ± 2.60 | 171.1 ± 2.40 | 64.1 | 17.36 ± 0.62 | 8.13 ± 0.51 | 18.96 ± 0.60 |  | 17.01 ± 1.89 |  | 174.24 ± 2.71 (≈ 600 µM)
O=c1cc(-c2ccccc2)oc2ccccc12 [F1] | 4.05 ± 0.45 | 105 ± 2.15 mg/dL | 54.39 ± 0.87 | 81.33 ± 0.61 | 8.13 ± 1.69 mg | 398.1 ± 2.57 | 171.5 ± 2.71 | 58.9 | 16.33 ± 0.69 | 7.96 ± 0.60 | 19.42 ± 0.51 |  | 19.45 ± 1.89 |  | 
Cc1ccc(-c2cc(=O)c3ccccc3o2)cc1 [F2] | 3.12 ± 0.38 | 99.23 ± 1.69 | 45.09 ± 0.67 | 78.61 ± 0.78 | 7.63 ± 1.11 mg | 401.6 ± 3.11 | 180.4 ± 2.38 | 72.3 | 18.21 ± 0.61 | 8.77 ± 0.59 | 18.72 ± 0.62 |  |  |  | 
O=c1c(O)c(-c2ccc(C(F)(F)F)cc2)oc2ccccc12 [OF6] | 3.34 ± 0.25 | 100.32 ± 1.29 | 44.02 ± 0.30 | 77.02 ± 0.97 | 8.11 ± 1.31 mg | 403.9 ± 2.239 | 179.1 ± 2.30 |  | 17.01 ± 0.52 | 8.03 ± 0.49 | 18.10 ± 0.51 |  | 15.88 ± 2.11 | 66.5 | 122.33 ± 1.98 (≈ 399 µM)
